Where two headings read alike, the source gives them in different places.
What was measured:
guinea pig right atria = test: Effect on force and rate of spontaneously beating right atria of the guinea pig; settings: Cavia porcellus, in vitro
Description: (§1) Two in vitro test systems particularly useful in determining selective beta stimulant activity are: (1) effect on spontaneous tone of guinea pig tracheal chain preparations as a measure of relaxant effect on airway smooth muscle, and (2) effect on force and rate of spontaneously beating right atria of the guinea pig as a measure of beta-stimulant effect on cardiac muscle. If a beta-adrenergic agent exerts an effect on spontaneous tone of guinea pig trachea at a concentration lower than is required to affect heart force and rate, there is a positive separation ratio and the agent is considered to have bronchodilator activity with minimal cardiac stimulation. Thus, a comparison of the test agent with standard beta-stimulants such as isoproterenol or other beta-adrenergic agents can be made and relative bronchial selectivity determined.

[1] = test system: serotonin-increase pulmonary airway resistance; test: Serotonin-induced sustained bronchoconstriction in anesthetized dog; assay type: in vivo
Procedure: (§2) In the rat, transient bronchoconstriction is induced with a short-lasting intravenous (i.v.) infusion of methacholine to obtain a control value and at various times thereafter following intraduodenal (i.d.) administration of the test drug. Doses of test drug blocking methacholine induced bronchoconstriction are determined. In the dog, sustained bronchoconstriction is induced by continuous i.v. infusion of serotonin and doses of test drug necessary to reverse the bronchoconstriction are determined. In both animal models, measurements of cardiovascular effects from test drug is made simultaneously with the determination of the dose reversing bronchoconstriction. These in vivo comparisons are considered particularly significant since the bronchoconstriction induced resembles asthma and intraduodenal drug dosing of the anesthetized animal (i.e., rat) is similar to oral administration to a conscious animal. In the rat, 2-hydroxy-5-[1-hydroxy-2-[(1,1-dimethyl-2-phenylethyl)animo]ethyl]benzeneacetonitrile hydrochloride at a dose of 0.5 mg./kg. and 2.0 mg./kg. of body weight antagonizes methacholine-induced bronchoconstriction by 33.5 ± 5.2% and 72.3 ± 4.0%, respectively.

heart rate [2] = test: Cardiovascular effect (heart rate) measured simultaneously in the dog model; assay type: in vivo; settings: 0.125 and 0.5 mg./kg.
Procedure: as §2

guinea pig trachea = test: Effect on spontaneous tone of guinea pig tracheal chain preparations; settings: Cavia porcellus; in vitro, bath concentration; read-out: effective bath concentration (EC) providing a 50% decrease in the spontaneous tone of the guinea pig trachea
Description: as §1

[3] = test system: methacholine-induced bronchoconstriction; test: Methacholine-induced bronchoconstriction in anesthetized rat; assay type: in vivo; settings: intraduodenal
Procedure: as §2

heart rate [4] = test: Cardiovascular effect (heart rate) measured simultaneously in the rat model; assay type: in vivo; settings: 0.5 and 2.0 mg./kg.
Procedure: as §2

- EC50 (guinea pig right atria; force, read-out: EC50 increasing the force of guinea pig right atria): 0.16 ± 0.028 µg/mL
- EC50 (guinea pig right atria; rate, read-out: EC50 increasing the rate of guinea pig right atria): 0.33 ± 0.1 µg/mL
- EC50 (guinea pig trachea): 5.5 ± 0.8 ng/mL
Compound: CC(C)(Cc1ccccc1)NCC(O)c1ccc(O)c(CC#N)c1.Cl (stereo not drawn) [2-Hydroxy-5-[1-hydroxy-2-[(1,1-dimethyl-2-phenylethyl)amino]ethyl]benzeneacetonitrile Hydrochloride]
- reduction of serotonin-increase pulmonary airway resistance ([1]; 0.125 mg./kg. body weight): 49.7 ± 13.4%
- reduction of serotonin-increase pulmonary airway resistance ([1]; 0.5 mg./kg. body weight): 96.7 ± 12.3%
- effect on heart rate at bronchodilating doses (heart rate [2]): without appreciably affecting heart rate
- antagonism of methacholine-induced bronchoconstriction ([3]; 0.5 mg./kg. of body weight): 33.5 ± 5.2%
- antagonism of methacholine-induced bronchoconstriction ([3]; 2.0 mg./kg. of body weight): 72.3 ± 4.0%
- effect on heart rate at bronchodilating doses (heart rate [4]): without appreciably affecting heart rate

Reference: US4055658A, “Cyanomethylphenethanolamines” (Mead Johnson & Company, priority 1976, dated 1977)
